One test has as its target T1, human GPR40 (Homo sapiens, UniProt O14842).
T1 construct: expressed in transfected cells
In words: GPR40 calcium flux assay, human GPR40. In kind it is cell-based. The settings on record: HEK293 cells stably expressing GPR40; table does not say human or rat. The method, boiled down:
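Cells preincubated 1 h at 37° C. in HBSS, 20 mM HEPES, 0.1% BSA, then Fluo 8 calcium dye 30 min at 37° C. and 15 min at room temperature.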

The target of the next test is T2, Human GPR120 short form (Homo sapiens, UniProt Q5NUL3).
T2 construct: expressed in transfected cells
T2 sequence (Q5NUL3 1-361): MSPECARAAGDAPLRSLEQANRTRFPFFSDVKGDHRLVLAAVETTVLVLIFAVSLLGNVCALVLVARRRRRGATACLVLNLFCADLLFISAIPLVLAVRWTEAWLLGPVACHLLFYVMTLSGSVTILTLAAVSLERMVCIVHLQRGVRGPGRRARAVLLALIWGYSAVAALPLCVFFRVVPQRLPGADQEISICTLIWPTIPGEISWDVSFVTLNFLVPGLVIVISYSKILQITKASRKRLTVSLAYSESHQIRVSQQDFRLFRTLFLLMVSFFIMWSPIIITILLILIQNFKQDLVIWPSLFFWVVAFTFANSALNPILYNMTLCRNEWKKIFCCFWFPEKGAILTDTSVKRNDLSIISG
As to the kind of experiment: Human GPR120 calcium flux assay, Procedure Calcium B (4200 cells/well). In kind it is cell-based. The method, boiled down: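 Agonist EC50 came from a four-parameter fit of RFU (Fmax−Fmin) read over 300 s on FLIPR. Cells were HEK293 stably transfected with human GPR120 (NM_001195755.1) at 4200 per well, serum-starved 1 h and loaded with Fluo-4 NW dye with probenecid before ligand addition.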

Drawing on patent US11230526B1, “Cylcoalkenyl derivatives useful as agonists of the GPR120 and/or GPR40 receptors” (Janssen Pharmaceutica NV, priority 2018, dated 2022), this text covers EC50 for eleven compounds.

T1 sequence (O14842 whole entry): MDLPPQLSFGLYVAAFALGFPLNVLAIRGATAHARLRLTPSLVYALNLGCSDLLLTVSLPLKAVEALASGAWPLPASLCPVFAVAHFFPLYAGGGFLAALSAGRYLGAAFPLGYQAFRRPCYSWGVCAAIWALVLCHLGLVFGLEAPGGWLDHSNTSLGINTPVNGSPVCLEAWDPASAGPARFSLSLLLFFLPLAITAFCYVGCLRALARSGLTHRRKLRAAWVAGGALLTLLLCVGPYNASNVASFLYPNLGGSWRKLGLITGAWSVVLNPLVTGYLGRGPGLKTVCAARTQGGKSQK

Regarding `O=C(O)CCc1cc(Cl)c(OCC2=C(c3ccc(F)cc3)CCC2)c(Cl)c1` [Compound 235, 3-[3,5-dichloro-4-[[2-(4-fluorophenyl)cyclopenten-1-yl]methoxy]phenyl]Propanoic Acid], the figures for the EC50 on human GPR40 and on Human GPR120 short form were > 5000 nM and 668 nM, respectively.

Turning to `Cc1ccc(C2=C(COc3cc(C)c(CCC(=O)O)cc3F)CCC2)cc1` [Compound 326, 3-[5-fluoro-2-methyl-4-[[2-(p-tolyl)cyclopenten-1-yl]methoxy]phenyl]Propanoic Acid], the EC50 is 4780 nM on human GPR40 and 157 nM at Human GPR120 short form.

As for `Cc1c(CCC(=O)O)ccc(OCC2=C(c3ccc(Cl)cc3)C(C(C)C)CCC2)c1C` (stereo not shown) [Compound 523, 3-[4-[[2-(4-chlorophenyl)-3-isopropyl-cyclohexen-1-yl]methoxy]-2,3-dimethyl-phenyl]Propanoic Acid], the EC50 at human GPR40 and at Human GPR120 short form was > 5000 nM throughout.

As to `Cc1ccc(F)c(C2=C(COc3ccc(CCC(=O)O)c(C(F)(F)F)c3)CCC2)c1` [Compound 341, 3-[4-[[2-(2-fluoro-5-methyl-phenyl)cyclopenten-1-yl]methoxy]-2-(trifluoromethyl)phenyl]Propanoic Acid], the 50% effective concentration (EC50) worked out at 281 nM on human GPR40 and 447 nM on Human GPR120 short form.

Consider `COc1ccc(C2=C(COc3cc(C)c(CCC(=O)O)cc3F)CCC2)cc1` [Compound 279, 3-[5-fluoro-4-[[2-(4-methoxyphenyl)cyclopenten-1-yl]methoxy]-2-methyl-phenyl]Propanoic Acid], for which the EC50 on human GPR40 came out at 3520 nM; at Human GPR120 short form it was 495 nM.

Regarding `Cc1ccc(C2=C(COc3ccc(CCC(=O)O)c(C(F)(F)F)c3)CCC2)cc1` [Compound 307, 3-[4-[[2-(p-tolyl)cyclopenten-1-yl]methoxy]-2-(trifluoromethyl)phenyl]Propanoic Acid], the EC50 at human GPR40 was 516 nM; at Human GPR120 short form, 288 nM.

With `CC(C)CC1=C(COc2ccc(CCC(=O)O)c(C(F)(F)F)c2)CCCC1` [Compound 579, 3-[4-[(2-isobutylcyclohexen-1-yl)methoxy]-2-(trifluoromethyl)phenyl]Propanoic Acid], the EC50 at human GPR40 is 75 nM; at Human GPR120 short form, 585 nM.

Turning to `O=C(O)CCc1ccc(OCC2=C(c3ccc(OC(F)(F)F)cc3)CCC2)cc1Cl` [Compound 311, 3-[2-chloro-4-[[2-[4-(trifluoromethoxy)phenyl]cyclopenten-1-yl]methoxy]phenyl]Propanoic Acid], the values for the EC50 on human GPR40 and on Human GPR120 short form were 792 nM and > 5000 nM, respectively.

For `O=C(O)CCc1ccc(OCC2=C(Cc3nccs3)CCC2)cc1C(F)(F)F` [Compound 440, 3-[4-[[2-(thiazol-2-ylmethyl)cyclopenten-1-yl]methoxy]-2-(trifluoromethyl)phenyl]Propanoic Acid], the EC50 came to 382 nM at human GPR40 and 2800 nM on Human GPR120 short form.

`CCCC1=C(COc2ccc(CCC(=O)O)c(C(F)(F)F)c2)CCCC1` [Compound 590, 3-[4-[(2-propylcyclohexen-1-yl)methoxy]-2-(trifluoromethyl)phenyl]Propanoic Acid]: the EC50 is 316 nM on human GPR40 and 1360 nM at Human GPR120 short form.

Turning to `Cc1c(CCC(=O)O)ccc(OCC2=C(c3ccc(Cl)cc3)CCC2=O)c1C` [Compound 145, 3-[4-[[2-(4-chlorophenyl)-5-oxo-cyclopenten-1-yl]methoxy]-2,3-dimethyl-phenyl]Propanoic Acid], the EC50 at human GPR40 is > 5000 nM; at Human GPR120 short form it was 2000 nM.
